Laboratory results taken from patent US7465469B2, “Microbiocidal formulation comprising essentials oils or their derivatives” (State of Israel, Ministry of Agriculture & Rural …, priority 2001, dated 2008).
In brackets after ≈: the same amount, converted by molar mass. Where two headings read alike, the source gives them in different places.

What was measured:
[1] = tested on: P. digitatum; test: Mode of action test (fungicidal or fungistatic) by transfer of the mycelial disc to plain PDA; format: cell-based, Penicillium digitatum; details: growth monitored 5 days after transfer to plain PDA
From the text: A further test was made (in vitro) to investigate whether the mode of action was fungicidal or fungistatic; the mycelial disc of inoculum from the assay plate was transferred to a plate containing just PDA. Plates were then monitored for growth over the next 5 days. If growth resumed, the compound was classified fungistatic, and if growth was not resumed it was classified as fungicidal.

[2] = tested on: P. digitatum; test: Minimum inhibitory concentration in PDA Petri dishes (mycelial disc); format: cell-based, Penicillium digitatum; details: 24° C., hyphal growth after 7 days
Protocol: The minimum inhibitory concentration (MIC) of over 50 compounds that were found in the oil glands of citrus fruits was evaluated (in vitro) by establishing the lowest concentration of the compound where no growth of the pathogen occurred (in vitro) in Petri dishes. Table 5 gives the MIC of the more promising compounds (as compared to imazalil). The requisite amount of each of the compounds to be tested, dissolved in 0.5 ml acetone, was added to a sterile Petri dish (90 mm) containing 15 ml of molten potato dextrose agar (PDA) (50° C.) to give a final concentration of 1 mg ml^−1. The dish was gently agitated to ensure an even distribution of the test compound and the agar was then left to set. The dishes were inoculated using a mycelial disc (8 mm) cut from an agar plate culture of P. digitatum which had not yet begun sporulation. The mycelial discs were placed in the center of each test dish and then put at 24° C. Fungal inhibition was monitored by measuring the diameter of hyphal growth after 7 days.

[3] = tested on: lemon fruit; test: Peel blemish index of lemon fruit after 1-minute dip in citral with antioxidant BHA; format: in vivo; details: BHA by itself
From the text: The antioxidant reduces the oxidation rate of the essential oils leading to their decomposition. It further reduces the inherent phytotoxicity of the essential oil. The antioxidant may be chosen from the group comprising of compounds such as but not limited to: butylated hydroxyanisole (BHA), ascorbic acid, isoascorbic acid, α-tocopherol, butylated hydroxytoluene (BHT), β-carotene or their mixtures. Preferred concentrations of the antioxidant in the formulation of the invention are in the range of from about 0.05% to about 0.8% (w/v).
The peel blemish index is determined by
(§1) The blemish score is 0 =no blemishes; 1=light blemishes; 2=moderate blemishes; and 3=severe blemishes.

[4] = tested on: Penicillium; test: Decay of lemons inoculated as in Example 2 and treated with citral emulsions; format: in vivo, Penicillium digitatum on lemons
Protocol: Unblemished grapefruit were harvested from the orchard and on the same day sorted again in the laboratory to eliminate injured fruit. The grapefruit were washed with tap water and air-dried. Each fruit was then inoculated by piercing its flavedo tissue 1.5 mm deep with a tool incorporating three needles at three different sites. Prior to each piercing, the tool was immersed in a spore suspension of Penicillium digitatum (10^6 spores/ml). The inoculated grapefruit were kept at 17° C. and 85% relative humidity for 24 hours after which the grapefruit were divided into six groups and grapefruit from each group were treated by dipping for two minutes in: (a) water; (b) 25% Ethanol (EtOH); (c) 0.2% Geraniol in 25% EtOH; (d) 0.1% Citral in 25% EtOH, (e) 0.2% Citral in 25% EtOH and (f) 0.5% Citral in 25% EtOH.
Lemons were inoculated as shown in Example 2 and treated with and without 25% of ethanol to check whether the 5000 ppm of the emulsifier Tween 20 could stabilize the antifungal activity of citral. […] Probably the emulsifier enables the formation of a microcolloidal stable emulsion, which prevents the phytotxicity by allowing uniform dispersion of citral, which is phytotoxic by itself in these concentrations. Thus, Tween 20 combined with the antioxidant BHA could substitute for the ethanol in the formulation.
Lemons inoculated with Penicillium as shown in Example 2 were dipped for 2 minutes in an aqueous solution comprising citral, emulsifier (Triton X100) and BHA at various concentrations. The concentration of Citral is 1.0%. The control solution was comprised of 0.5% Triton X100.
Lemons inoculated with Penicillium as shown in Example 2 were treated with an aqueous solution comprising 0.5% Citral, 0.3% BHA, Tween 20 and imazalil and stored at 20° C. for a period of 21 days.

[5] = tested on: Geotrichum Candidum; test: In vitro agar diffusion assay; format: cell-based; details: Five mg on paper disc; Total inhibition is the maximal inhibition, 62.3 cm^2
[6] = tested on: Penicillium italicum; test: In vitro agar diffusion assay; format: cell-based; details: Five mg on paper disc; Total inhibition is the maximal inhibition, 62.3 cm^2
[7] = tested on: Alternaria citri; test: In vitro agar diffusion assay; format: cell-based; details: Five mg on paper disc; Total inhibition is the maximal inhibition, 62.3 cm^2
[8] = tested on: Erwinia carotovora; test: Control of bacterial growth (other experiments, data not shown); format: cell-based
[9] = tested on: microbial population in meat cuts of beef; test: Total count of microbial population in beef meat cuts after dip; details: 30 seconds dip in 0.2% Citral dissolved in 20% ethanol; 2 weeks at 1° C.
Protocol: The meat cuts were then stored in 1° C. and 85% relative humidity and a total count of the microbial population in each meat cut was carried out 2 weeks after treatment.

[10] = tested on: wild type Candida albicans; test: Growth of Candida albicans cells in culture broth (OD 600 nm); format: cell-based
Protocol: Cells of wild type Candida albicans (1×10^3) were grown on culture broth at 37° C. with different concentration of extracts 50-100 μl. OD was determined at 600 nm. The following treatments in 6 different tubes were given: […] TUBE 2. 2000 ppm Citral+25% Ethanol+2000 ppm Tween-20+300 ppm BHA. […] TUBE 6. 25% ethanol+2000 ppm Tween-20+500 ppm β-CD+300 ppm BHA.

[11] = tested on: P. digitatum; test: Control of fungal growth (other experiments, data not shown); format: cell-based, Penicillium digitatum
[12] = tested on: Penicillium digitatum; test: Decay of Penicillium-inoculated grapefruit after 2-minute dip; format: in vivo, Penicillium digitatum on grapefruit
From the text: Unblemished grapefruit were harvested from the orchard and on the same day sorted again in the laboratory to eliminate injured fruit. The grapefruit were washed with tap water and air-dried. Each fruit was then inoculated by piercing its flavedo tissue 1.5 mm deep with a tool incorporating three needles at three different sites. Prior to each piercing, the tool was immersed in a spore suspension of Penicillium digitatum (10^6 spores/ml).

[13] = tested on: Cladosporium herbarum; test: Inhibition of Cladosporium herbarum growing on inoculated corn cob; format: in vivo; details: dissolved in 25% ethanol
[14] = tested on: lemons; test: Induction of phytoalexins (scoparone, scopoletin) in lemons; format: in vivo, lemon; details: injection into the albedo tissue of lemons
Protocol: Treating uninoculated lemons by injecting 5 μl photo-oxidized limonene into the albedo tissue, just below the flavedo, elicited in these lemons the production of scoparone and scopoletin up to levels adequate to protect the fruit from the pathogen. […] Such injury of yellow fruit gave much lower response showing that the maturity of fruit affects this resistance response and older fruit is less protected (FIG. 2). […] Furthermore much higher levels of both scoparone (over 1000 μg/g fresh weight) and of scopoletin (over 200 μg/g fresh weight) were found after dipping inoculated fruit in the crude dichloromethane extract that prevented decay (FIG. 7). The phytoalexins level found was several fold of the amount required to control completely the pathogens. Thus apparently, the formed limonene hydroperoxides form reactive oxygen species, which elicit the immune system of the plant. Such reactive oxygen species effect the pathogen as well. These reactive oxygen species have a short life and decompose well before the fruit is distributed to the market.

[15] = tested on: non-inoculated Washington oranges; test: Decay percentage of non-inoculated Washington oranges during storage; format: in vivo, Washington navel oranges
Protocol: Non-inoculated Washington navel oranges were divided into […] groups which were treated as follows: (a) no treatment; (b) dipped in 50% Ethanol; (c) dipped in 0.2% Citral in 0.02% L-77 Emulsifier (aqueous emulsion); (d) dipped in 0.2% Citral in 50% Ethanol; and (e) dipped in a 0.2% aqueous Imazalil solution.
Oranges were then stored for four months at 15° C. in 50-75% relative humidity and the percentage of rotten fruit in each group was measured at different time periods after storage.

[16] = tested on: Penicillium digitatum; test: Decay of lemons inoculated with Penicillium 10^4 spores/ml and dipped; format: in vivo, Penicillium digitatum on lemons; details: limonene or peel extract not irradiated or exposed to sunlight
Protocol: Lemon fruit flavedo (exocarp) was taken and extracted overnight in dichloromethane, then exposed to sunlight for about 18 hours until the color of the dichloromethane extract turned brown. The flavedo was blended and filtered through a layer of Whatman paper. The extracted solution was evaporated to remove the dichloromethane and the dense liquor was further separated by chromatography with a silica 60 column using dichloromethane as a carrier. Two fractions of dichloromethane, one green and the other colorless, were obtained after chromatography. The crude active extract was isolated by evaporation of the green dichloromethane fraction. […] Effect of the compounds on pathogen development on the fruit was checked daily during storage.
The antifungal activity of the products prepared in the two different routes was checked in the same method. […] Decay was evaluated at specific intervals during a period of 26 days.
Lemons inoculated with Penicillium (10^4 spores/ml) were dipped in an aqueous solution comprising citral, a detergent (Tween 20), other essential oil components as well as a dichloromethane crude extract of lemon flavedo exposed to sunlight. Decay was evaluated at specific intervals during a period of 20 days.
Pure limonene was exposed to sunlight for three hours. […]

[17] = tested on: fruit; test: Phytotoxicity of citral solutions comprising emulsifiers (1-minute fruit dip); details: in vivo
From the text: as §1

[18] = Penicillium digitatum, 168 h, read-out: MIC

Compound	Mode of action [1]	MIC [2, 18] [µg/mL]	GROWTH INHIBITION AREA OF THE PATHOGEN [5]	GROWTH INHIBITION AREA OF THE PATHOGEN [6]	GROWTH INHIBITION AREA OF THE PATHOGEN [7]	also measured
C=C(C)C1CC=C(C)C(O)C1 (mixture of isomers) [Carveol]	Fungistatic	1000				
COc1ccc(O)c(C(C)(C)C)c1 [BHA, butylated hydroxyanisole]						Peel blemish [3]: did not cause any blemish; activity of citral in preventing the development of the pathogen ([4]; 0.1% BHA with 1.0% citral and Triton X100, 2 minutes dip): enhancing the activity of citral
O=CC=Cc1ccccc1 [Cinnamaldehyde]	Fungicidal	400 (≈ 3030 µM)	24.2 cm^2	Total inhibition	Total inhibition	
CC(C)=CCCC(C)=CC=O [Citral, 3,7-dimethyl-2,6-octadienal]	Fungicidal	400 (≈ 2630 µM)	10.6 cm^2	Total inhibition	Total inhibition	controlling growth of the bacteria [8]: effective in controlling growth; total counts of microbial population, relative to the non-treated meat cuts [9]: less than 10%; cell growth ([10]; 2000 ppm Citral in 25% ethanol and 2000 ppm Tween 20): completely inhibited cell growth; cell growth ([10]; 2000 ppm Citral, 25% ethanol, 2000 ppm Tween 20 together with β-CD 500 ppm, 300 ppm BHA): completely inhibited cell growth; controlling growth of the fungi [11]: effective in controlling growth; fruit showing decay ([12]; 0.2% Citral dissolved in 25% EtOH, 28 days after inoculation): 20%; decay of fruit ([12]; 0.2% Citral dissolved in 25% EtOH, until 18 days after inoculation): completely inhibited decay; decay of fruit ([12]; 0.5% Citral in 25% EtOH, ascribed to phytotoxicity): enhanced decay; inhibition of the pathogen [13]: marked inhibition; decay control ([4]; 0.5% citral added to 1 ppm imazalil, 0.3% BHA, Tween 20, 20° C., 21 days): did not control decay adequately; decay control ([4]; 0.5% citral added to 10 ppm imazalil, 0.3% BHA, Tween 20, 20° C., 21 days): prevented decay completely; elicitation of phytoalexin (scoparone, scopoletin) production [14]: did not elicit the same protective response
CC(C)=CCCC(C)CC=O (stereo not shown) [Citronellal]	Fungistatic	600 (≈ 3890 µM)				
CCCCCCCCCCO [Decanol]	Fungistatic	50 (≈ 316 µM)	0.95 cm^2	Total inhibition	Total inhibition	
C=CCOC(Cn1ccnc1)c1ccc(Cl)cc1Cl (stereo not shown) [Imazalil, reference compound]	Fungicidal	< 25	8.3 cm^2	Total inhibition	42.8 cm^2	decay control ([4]; imazalil 1 and 10 ppm, stored at 20° C. for 21 days): insufficient to control completely decay; % of rotten fruit ([15]; 0.5 months of storage at 15° C.): 0%; % of rotten fruit ([15]; 1 month of storage at 15° C.): 2%; % of rotten fruit ([15]; 2 months of storage at 15° C.): 4%; % of rotten fruit ([15]; 3 months of storage at 15° C.): 5%; % of rotten fruit ([15]; 4 months of storage at 15° C.): 8%
CCCCCCCCCO [Nonanol]	Fungistatic	200 (≈ 1390 µM)				
CCCCCCCC=O [Octanal]			3.6 cm^2	2.6 cm^2	5.3 cm^2	
CCCCCCCCO [Octanol]	Fungicidal	100 (≈ 768 µM)	Total inhibition	Total inhibition	Total inhibition	
C=C(C)[C@@H]1CC=C(CO)CC1 [Perillalcohol]	Fungicidal					MIC [2]: 0.4 mg ml^−1 agar
C=C(C)C1CC=C(C=O)CC1 (stereo not shown) [Perillaldehyde]	Fungicidal	400 (≈ 2660 µM)	Total inhibition	Total inhibition	Total inhibition	
C=C(C)C1CC=C(C)CC1 (stereo not shown) [limonene, 1-methyl-4-(1-methylethenyl)cyclohexene]						elicitation of phytoalexin (scoparone, scopoletin) production [14]: eliciting the endogenous resistance mechanisms; inhibition of decay [16]: not adequately active
polyoxyethylene sorbitan monooleate [Tween 80]						Phytotoxicity (peel blemish index as in Table 1) [17]: 0
